# Key:
# rats subjected to tMCAo [1] = assay: Intranasal Pen1-XBIR3 prior to tMCAo in rats; immunohistochemistry counts of neurons and processes in the penumbra; assay type: in vivo, rat
# Description: Brains were analyzed for expression of activated caspase-6, NF-L, MAP-2, and NeuN at 12 hpr and 24 hpr. […] Therefore, caspase-9 inhibition using this delivery technique reduced caspase-6 activity. […] (Coleman, M., Nat Rev Neurosci 6 (11), 889-898 (2005)). […] Unlike axon density, dendrite levels are unaffected at 12 and 24 hpr (FIG. 4D), which can indicate a slower time-course for dendritic degeneration or a different mechanism of degeneration.
# Mouse & Rat Stroke Models. Caspase-6 null (C6^−/−) mice (Jackson Laboratories)^48,49 on C57/B16 background were bred with wild-type C57/B16 mice to generate C6^+/− heterozygotes, hets were bred to generate C6^−/− and wild-type littermates for studies. 2-3 month old male C6^−/− and wild-type littermate mice (23-30 g) as well as adult Wistar male rats 250-300 g (Taconic Laboratories) were subjected to transient middle cerebral artery occlusion (tMCAo) as previously published. (Connolly, et al., Neurosurgery 38 (3), 523-531; discussion 532 (1996); Komotar, et al., Nat Protoc 2 (10), 2345-2347 (2007)). Brains were harvested and processed for western blotting or immunohistochemistry as described below. For mouse neurofunctional analysis, a 28 point neurological functional exam was performed as previously described. (Clark, et al., Neurol Res 19 (6), 641-648 (1997)). Additionally, single mice were placed in a fresh cage at each time point (Pre-stroke, 24 hr reperfusion, 7 days reperfusion) short videos (3 min at each time point) were recorded of each mouse's representative spontaneous activity to illustrate motor deficits in the mouse stroke model.
# (§1) Intranasal Delivery of Pen1-XBIR3. While under isofluorane anesthesia and lying on their backs, Pen1-XBIR3 (36.8 μM) was delivered to rats by administering 6 μl drops to alternating nares every two minutes for 20 minutes (60 μl total delivered). (Thorne, et al., Neuroscience 127 (2), 481-496 (2004)). Intranasal treatment was done prior to induction of stroke. Saline was used as a negative control. Brains were harvested for immunohistochemistry or western blotting.
# Immunohistochemistry (IHC), Cell Process Quantification, and Statistical Analysis. Rats and mice were euthanized, perfused with heparin followed by fixation with 4% paraform-aldehyde. Sections were blocked for 1 hr with 10% normal goat serum/1% BSA, incubated with primary antibody overnight at 4° C., washed with PBS-Triton-X100 (0.1%), incubated with the species appropriate Alexa Fluor-conjugated secondary antibody (Invitrogen) for 2 hr at RT. Slides were also stained with Hoechst 33342 for 15 min at RT (1 μg/ml, Invitrogen) or with NeuroTrace fluorescent Nissl stain (1:300, Invitrogen) for 30 min to stain for nuclei. Human samples were additionally treated with Sudan Black (1% in 70% EtOH) for 5 min at RT and washed with 3 changes of PBS (3 min each). For detection of fluorescent staining, sections were imaged with an upright Nikon fluorescent microscope using a SPOT digital camera and with a Perkin-Elmer Spinning Disc Confocal Imaging System. Quantification of neurons and axons was accomplished using the Cell Counter plug-in for ImageJ (NIH). For quantification in the rat brain, 20x magnification images were acquired from the dorsal motor cortex and the […] somatosensory cortex forelimb region; both regions are contained are within the infarct penumbra (FIG. 1A). Single blind counts of processes or neurons were made in both regions of interest and then pooled for each individual animal. Three animals were used per cohort. For mouse brains, 20× magnification images were taken in the S1 somato-sensory cortex forelimb region and similar counts were made as described below. Counts were made for NF-L/MAP-2 positive processes and NeuN positive cell bodies. Comparisons between groups used the student's t test, p-value: 0.05.
# rats subjected to tMCAo [2] = assay: 24-point neurofunctional scale after 2 hr tMCAo, monitored for 21 days; assay type: in vivo, rat
# Description: The efficacy of Pent-XBIR3 to prevent sensory-motor disability caused by stroke was tested by giving rats either a prophylatic (pre-occlusion) or therapeutic (4 hours post reperfusion) intranasal bolus of vehicle or Pent-XBIR3 (prepared and administerd as described in section 6.8, below). Rodents were assayed with a 24-point neurofunctional scale starting at 1 day post-ischemia with testing every other day for 3 weeks after the ischemic event.
# as §1
# [3] = Intranasal delivery of Pen1-XBIR3 to rat CNS; western blot (anti-HIS) of coronal brain slices; assay type: in vivo; conditions: intranasal 60 μl, 1 hr after delivery
# Description: The following experiment was performed to ascertain if the Pen1-XBIR3 could also bypass the blood brain barrier via another delivery technique. […] (Dhuria, et al., J Pharm Sci 99 (4), 1654-1673 (2010); Liu, et al., J Stroke Cerebrovasc Dis 13 (1), 16-23 (2004); Liu, et al., J Neurol Sci 187 (1-2), 91-97 (2001)). This delivery method takes advantage of the olfactory pathway to bypass the blood brain barrier, however until now, proteins and compounds delivered via this method in rodent models have targeted extracellular targets, such as cell surface receptors. Since caspases, which are intracellular proteins, are targeted in this experiment, the cargo needed to be delivered intracellularly. […] Pent-XBIR3 was delivered intranasally to rats, after which brains were sliced coronally, and the presence of XBIR3 in the CNS determined by western blotting (FIG. 4A).
# as §1
# rats subjected to tMCAo [4] = assay: Ischemic infarct volume (H&E) after intranasal Pen1-XBIR3 and tMCAo; assay type: in vivo, rat; conditions: 24 hpr, n=3
# Description: as §1
substance,measurement,setting,value
"Pen1-XBIR3: BIR3 domain from XIAP, a specific caspase-9 inhibitor, disulfide-linked to Penetratin1 cell transduction peptide (SEQ ID NO: 10)",MAP-2 positive processes (dendrites),"rats subjected to tMCAo [1]; 12 hpr, n=3",162.0±19.22
same,NF-L positive axons,"rats subjected to tMCAo [1]; 12 hpr, n=3",179.7±14.89
same,NeuN positive cells,"rats subjected to tMCAo [1]; 12 hpr, n=3",477.3±28.95
same,MAP-2 positive processes (dendrites),"rats subjected to tMCAo [1]; 24 hpr, n=3",138.3±6.766
same,NeuN positive cells,"rats subjected to tMCAo [1]; 24 hpr, n=3",453.7±25.44
same,NeuN positive cells,"rats subjected to tMCAo [1]; 24 hpr, n=3, listed as Pent-XBIR3",significant protection against neuron loss
same,neurofunctional score (stroke related disability),rats subjected to tMCAo [2]; prophylactic (pre-occlusion) intranasal bolus,less stroke related disability
same,neurofunctional score (stroke related disability),rats subjected to tMCAo [2]; therapeutic (4 hours post reperfusion) intranasal bolus,functional recovery up to 21 d
same,neurofunctional score (stroke related disability),"rats subjected to tMCAo [2]; therapeutic (4 hours post reperfusion) intranasal bolus, listed as Pent-XBIR3",less stroke related disability
same,presence of XBIR3 in brain slices (anterior to posterior),[3],delivered to all slices of the brain
same,presence of XBIR3 in brain slices (anterior to posterior),[3]; listed as Pent-XBIR3,throughout the rat CNS
same,ischemic infarct volume,rats subjected to tMCAo [4],reduces ischemic infarct volume

# From patent US20200164026A1, “Intranasal Delivery of Cell Permeant Therapeutics” (The Trustees of Columbia University in the City of New York, priority 2010, published 2020)
